Literature values in patent EP3277282B1 (Istanbul Universitesi Rektorlugu, priority 2015, dated 2016).

How the values were obtained:
[1] = given to human by oral route

- solubility in ethanol, methanol and organic solvents: soluble
SMILES: Cc1nc(Nc2ncc(C(=O)Nc3c(C)cccc3Cl)s2)cc(N2CCN(CCO)CC2)n1 [Dasatinib, N-(2-chloro-6-methylphenyl)-2-[[6-[4-(2-hydroxyethyl)-1-piperazinyl]-2-methyl]-4-pyrimidinyl]amino]-5-thiazolecarboxamide mono-hydrate]
- systemic side effects [1]: bleeding in the intestines
